Measurements as given in publication PMC6130518, “Investigation of the effective components of the flowers of Trollius chinensis from the perspectives of intestinal bacterial transformation and intestinal absorption” (Pharmaceutical Biology, 2017).

System: Caco-2 cells
Test: MTT assay, non-toxic dose range
Assay type: cell-based, human
Conditions: 4 h, positive control
Experimental: The Caco-2 cells were seeded into 96-well plates as they were in logarithmic growth phase. Each well was added with 100 μL of the cell suspension (8.0 × 10^3 cells/mL) and incubated in 5% CO2 and constant temperature (37 °C) and humidity in the incubator. […] The cells were incubated under the same conditions for 4 h; then, 100 μL of 3-(4,5-dimethylthiazolzyl)-2,5-diphenyl tetrazolium bromide (MTT, Amresco, Radnor, PA) solution at the concentration of 0.5 mg/mL took the place of HBSS. After the cells were incubated under the same conditions for 4 h, the supernatant was replaced by 150 μL of dimethyl sulphoxide (DMSO, Sigma Chemical Co., Deisenhofen, Germany); then, the cells were shaken for 10 min. The absorption of the samples was measured on a microplate reader (BioTek Instruments, Inc., Winooski, VT) at the wavelength of 570 nm.
The following formula was used to calculate the cell survival rate=A/A0×100%, wherein, A represented the average absorbance value of the experiment groups, and A0 represented the average absorbance value of the control group.

Which results are given for `CC(=O)O[C@H]1C(=O)[C@@]2(C)[C@H]([C@H](OC(=O)c3ccccc3)[C@]3(O)C[C@H](OC(=O)[C@H](O)[C@@H](NC(=O)c4ccccc4)c4ccccc4)C(C)=C1C3(C)C)[C@]1(OC(C)=O)CO[C@@H]1C[C@@H]2O` [paclitaxel]?
survival rate of the Caco-2 cells (0.02 mg/L): 67.3%; survival rate of the Caco-2 cells (0.04 mg/L): 45.5%; survival rate of the Caco-2 cells (0.08 mg/L): 37.4%
